Experimental data: paper PMC6193938, “Characterization of a novel AICARFT inhibitor which potently elevates ZMP and has anti-tumor activity in murine models” (Scientific Reports, 2018)
Entries after “also recorded” stand apart in the source; their conditions may differ.

Key:
[1] = target: T1, CDK1 (Homo sapiens, UniProt P06493); assay: CEREP protein kinase assay; format: biochemical
T1 construct: purchased CEREP Panlabs (Eurofins)

[2] = mouse, in vivo
[3] = target: T2, TAK1 (Homo sapiens, UniProt O43318); assay: CEREP protein kinase assay; format: biochemical
T2 construct: purchased CEREP Panlabs (Eurofins)
T2 sequence (O43318 1-303 limits assumed): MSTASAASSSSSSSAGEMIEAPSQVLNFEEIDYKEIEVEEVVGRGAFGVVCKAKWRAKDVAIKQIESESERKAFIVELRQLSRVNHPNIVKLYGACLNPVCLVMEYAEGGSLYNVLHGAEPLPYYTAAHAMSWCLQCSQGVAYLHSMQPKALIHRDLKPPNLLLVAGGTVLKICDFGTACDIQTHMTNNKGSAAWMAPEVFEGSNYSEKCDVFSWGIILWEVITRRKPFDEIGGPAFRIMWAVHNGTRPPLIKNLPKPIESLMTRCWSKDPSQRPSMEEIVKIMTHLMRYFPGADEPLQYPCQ
T2 sequence (Q15750 437-504 partner limits assumed): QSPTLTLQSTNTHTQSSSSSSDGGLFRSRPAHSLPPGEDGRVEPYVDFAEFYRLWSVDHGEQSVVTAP

[4] = target: T3, CK2 (Homo sapiens, UniProt P68400); assay: CEREP protein kinase assay; format: biochemical
T3 construct: purchased CEREP Panlabs (Eurofins)

[5] = target: T4, PIM1 (Homo sapiens, UniProt P11309); assay: CEREP protein kinase assay; format: biochemical
T4 construct: purchased CEREP Panlabs (Eurofins)

[6] = target: T5, FGFR4 (Homo sapiens, UniProt P22455); assay: CEREP protein kinase assay; format: biochemical
T5 construct: purchased CEREP Panlabs (Eurofins)

[7] = target: T6, FER (Homo sapiens, UniProt P16591); assay: CEREP protein kinase assay; format: biochemical
T6 construct: purchased CEREP Panlabs (Eurofins)

[8] = test system: A9 cells; assay: MS detection of ZMP and dUMP in cultured cells; format: cell-based, murine
Method: To mimic human plasma levels, low folate media is traditionally used in which the folate comes only from the defined fetal bovine serum. […] Because LSN3213128 would be dosed in mice on normal diet, cell line screening was performed under standard tissue culture conditions to identify cell lines sensitive to treatment under high folate conditions. In order to compare tissue culture values with tumor levels, an average 4 pL cell volume[36] was used to calculate cellular ZMP concentrations. In MDA-MB-231[…] cells using regular RPMI, the peak intracellular ZMP levels are about 770 μM while in the salvage deficient A9 cells ZMP is 6,500 μM. […] It is not surprising that in vivo in mice on standard chow where folate plasma levels are >10-fold lower than tissue culture that tumor ZMP levels are also lower. […] ZMP was detected in cultured cells via mass spec analysis. Cells were plated in 96-well plates at 25,000 cells per well in 100 μL with either high or low folate RPMI media and incubated overnight at 37 °C with 5% CO2. Cells were treated with inhibitor compounds for 16 hours, 0.5% DMSO final concentration. Growth media was decanted and cells were lysed for 10 min at room temperature with 50 μL per well of 1x Sure Fire Lysis buffer (Perkin Elmer, SureFire kit component). […] Samples were sealed, vortexed for 5 minutes, and placed in the refrigerator for at least 30 minutes. The samples were centrifuged at 4 °C for 10 minutes at 16,600 g. 75 μL of the aqueous layer were transferred to a clean 96-well plate and seal prior to analysis. The LC-MS method utilizes a Shimadzu Prominence 20 A HPLC system connected to an AB Sciex 5500TM or an AB Sciex 6500TM triple quadrupole mass spectrometer. […] […] dUMP were detected using positive ion TurboIonSpray® multiple reaction monitoring mode and the data were processed with AB Sciex MultiQuantTM. Back-calculated ZMP concentrations were fit to a four-parameter logistic equation using ACTIVITYBASE 4.0 to determine EC50 values relative to the maximum observed metabolite levels.

[9] = target: T7, ERK1 (Homo sapiens, UniProt P27361); assay: CEREP protein kinase assay; format: biochemical
T7 construct: purchased CEREP Panlabs (Eurofins)
T7 sequence (P27361 whole entry): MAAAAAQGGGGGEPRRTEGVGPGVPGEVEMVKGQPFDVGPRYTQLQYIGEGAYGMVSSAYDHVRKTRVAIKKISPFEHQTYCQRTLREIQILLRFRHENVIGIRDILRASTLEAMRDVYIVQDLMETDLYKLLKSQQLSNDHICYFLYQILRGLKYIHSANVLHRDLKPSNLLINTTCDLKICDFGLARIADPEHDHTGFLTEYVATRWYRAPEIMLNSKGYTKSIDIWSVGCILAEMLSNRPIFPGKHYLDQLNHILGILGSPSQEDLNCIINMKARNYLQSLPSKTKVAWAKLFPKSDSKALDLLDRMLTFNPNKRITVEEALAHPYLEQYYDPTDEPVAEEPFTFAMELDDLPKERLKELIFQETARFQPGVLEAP

T1 sequence (P06493 whole entry): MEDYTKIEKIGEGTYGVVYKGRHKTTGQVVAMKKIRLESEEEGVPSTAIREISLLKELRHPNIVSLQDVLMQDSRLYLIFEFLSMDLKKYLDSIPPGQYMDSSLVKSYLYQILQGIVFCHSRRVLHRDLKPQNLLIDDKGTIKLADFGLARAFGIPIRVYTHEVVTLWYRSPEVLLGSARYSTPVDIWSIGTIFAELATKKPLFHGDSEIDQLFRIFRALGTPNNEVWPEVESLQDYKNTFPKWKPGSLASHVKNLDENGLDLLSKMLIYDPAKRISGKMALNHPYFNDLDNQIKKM
T1 sequence (P14635 whole entry partner): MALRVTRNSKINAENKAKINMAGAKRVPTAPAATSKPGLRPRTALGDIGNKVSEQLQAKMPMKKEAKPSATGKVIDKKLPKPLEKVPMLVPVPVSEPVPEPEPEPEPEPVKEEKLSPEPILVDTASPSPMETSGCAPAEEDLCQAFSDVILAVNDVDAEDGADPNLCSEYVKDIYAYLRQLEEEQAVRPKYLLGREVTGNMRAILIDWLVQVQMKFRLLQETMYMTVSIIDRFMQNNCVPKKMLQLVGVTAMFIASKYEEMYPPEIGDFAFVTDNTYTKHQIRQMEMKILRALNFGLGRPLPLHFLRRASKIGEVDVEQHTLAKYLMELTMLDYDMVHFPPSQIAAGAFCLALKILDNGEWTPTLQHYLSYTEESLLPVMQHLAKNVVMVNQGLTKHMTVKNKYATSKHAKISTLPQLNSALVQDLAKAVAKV
T3 sequence (P68400 whole entry): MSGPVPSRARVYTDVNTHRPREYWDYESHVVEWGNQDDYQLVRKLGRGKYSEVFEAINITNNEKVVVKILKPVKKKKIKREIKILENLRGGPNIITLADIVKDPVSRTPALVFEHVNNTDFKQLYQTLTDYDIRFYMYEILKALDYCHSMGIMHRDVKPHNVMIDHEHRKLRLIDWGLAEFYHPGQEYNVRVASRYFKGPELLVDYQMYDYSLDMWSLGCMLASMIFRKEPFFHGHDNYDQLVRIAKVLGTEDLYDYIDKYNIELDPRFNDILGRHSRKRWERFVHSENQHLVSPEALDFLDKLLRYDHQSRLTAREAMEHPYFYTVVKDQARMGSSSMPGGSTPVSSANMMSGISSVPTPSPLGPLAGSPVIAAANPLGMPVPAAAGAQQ
T6 sequence (P16591 whole entry): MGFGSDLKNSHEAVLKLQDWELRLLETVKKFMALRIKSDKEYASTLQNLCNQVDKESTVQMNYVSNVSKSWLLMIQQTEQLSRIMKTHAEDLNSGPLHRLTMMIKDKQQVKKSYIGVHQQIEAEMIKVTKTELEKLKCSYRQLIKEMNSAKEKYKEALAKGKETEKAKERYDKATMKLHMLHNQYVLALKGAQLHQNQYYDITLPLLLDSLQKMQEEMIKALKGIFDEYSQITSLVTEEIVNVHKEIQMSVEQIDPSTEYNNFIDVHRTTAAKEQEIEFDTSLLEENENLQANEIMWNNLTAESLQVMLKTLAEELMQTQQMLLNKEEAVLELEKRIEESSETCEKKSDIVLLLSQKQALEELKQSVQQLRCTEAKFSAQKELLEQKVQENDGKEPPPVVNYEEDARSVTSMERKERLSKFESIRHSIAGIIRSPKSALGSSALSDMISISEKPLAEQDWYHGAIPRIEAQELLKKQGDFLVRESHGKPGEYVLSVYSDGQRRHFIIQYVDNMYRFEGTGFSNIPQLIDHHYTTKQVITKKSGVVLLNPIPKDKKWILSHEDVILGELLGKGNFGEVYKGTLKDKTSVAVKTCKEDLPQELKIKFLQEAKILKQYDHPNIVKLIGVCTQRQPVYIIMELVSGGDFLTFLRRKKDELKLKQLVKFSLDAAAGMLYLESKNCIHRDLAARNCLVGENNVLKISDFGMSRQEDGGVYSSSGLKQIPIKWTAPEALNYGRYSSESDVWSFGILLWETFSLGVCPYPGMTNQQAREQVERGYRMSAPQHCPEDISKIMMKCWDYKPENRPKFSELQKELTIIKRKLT
T5 sequence (P22455 22-802): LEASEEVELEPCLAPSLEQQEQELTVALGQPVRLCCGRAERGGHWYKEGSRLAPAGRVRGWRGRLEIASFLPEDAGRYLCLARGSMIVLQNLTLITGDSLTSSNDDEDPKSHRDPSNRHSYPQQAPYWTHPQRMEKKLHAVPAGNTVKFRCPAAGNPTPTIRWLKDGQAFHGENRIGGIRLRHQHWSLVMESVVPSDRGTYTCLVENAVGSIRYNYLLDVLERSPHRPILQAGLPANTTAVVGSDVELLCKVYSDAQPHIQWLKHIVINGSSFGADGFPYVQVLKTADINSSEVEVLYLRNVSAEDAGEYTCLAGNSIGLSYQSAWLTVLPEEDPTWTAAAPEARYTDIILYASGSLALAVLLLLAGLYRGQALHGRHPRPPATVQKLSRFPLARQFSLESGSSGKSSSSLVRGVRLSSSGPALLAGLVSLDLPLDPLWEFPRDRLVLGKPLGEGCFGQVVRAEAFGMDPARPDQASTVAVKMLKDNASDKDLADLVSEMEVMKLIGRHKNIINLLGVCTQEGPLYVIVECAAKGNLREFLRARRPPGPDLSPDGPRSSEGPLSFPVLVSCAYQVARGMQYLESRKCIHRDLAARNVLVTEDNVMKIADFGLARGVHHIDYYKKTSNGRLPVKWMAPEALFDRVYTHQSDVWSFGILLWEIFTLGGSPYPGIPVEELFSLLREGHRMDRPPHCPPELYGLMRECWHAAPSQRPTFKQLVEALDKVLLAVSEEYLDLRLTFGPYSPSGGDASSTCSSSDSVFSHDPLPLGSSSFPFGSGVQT
T4 sequence (P11309 whole entry): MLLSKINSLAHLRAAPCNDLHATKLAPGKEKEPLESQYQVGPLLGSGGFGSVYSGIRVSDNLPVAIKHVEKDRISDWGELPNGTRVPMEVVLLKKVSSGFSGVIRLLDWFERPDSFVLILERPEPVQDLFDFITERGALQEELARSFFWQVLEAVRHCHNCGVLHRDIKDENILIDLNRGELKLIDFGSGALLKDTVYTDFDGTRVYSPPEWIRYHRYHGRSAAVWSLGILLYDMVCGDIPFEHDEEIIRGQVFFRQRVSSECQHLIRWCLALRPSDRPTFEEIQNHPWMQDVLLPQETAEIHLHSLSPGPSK

Structure (SMILES): O=c1[nH]ccc2cc(F)c(NS(=O)(=O)c3ccc(N4CC[C@@H](O)C4)s3)cc12 [LSN3213128, N-(6-Fluoro-1-oxo-1,2-dihydroisoquinolin-7-yl)-5-[(3R)-3-hydroxypyrrolidin-1-yl]thiophene-2-sulfonamide]
- inhibition at 0.2 µM ([1]; @ 0.2 uM): -4.14%
- inhibition at 2 µM ([1]; @ 2 uM): 4.5%
- inhibition at 20 µM ([1]; @ 20 uM): 5.99%
- tolerability of efficacy studies [2]: toxicity upon repeated dosing
- inhibition at 0.2 µM ([3]; @ 0.2 uM): -0.355%
- inhibition at 2 µM ([3]; @ 2 uM): 4.6%
- inhibition at 20 µM ([3]; @ 20 uM): 19.3%
- inhibition at 0.2 µM ([4]; @ 0.2 uM): -7.53%
- inhibition at 2 µM ([4]; @ 2 uM): -0.227%
- inhibition at 20 µM ([4]; @ 20 uM): 1.58%
- inhibition at 0.2 µM ([5]; @ 0.2 uM): 7.96%
- inhibition at 2 µM ([5]; @ 2 uM): 13.3%
- inhibition at 20 µM ([5]; @ 20 uM): 26.5%
- inhibition at 0.2 µM ([6]; @ 0.2 uM): 0.737%
- inhibition at 2 µM ([6]; @ 2 uM): 13.2%
- inhibition at 20 µM ([6]; @ 20 uM): 8.82%
- inhibition at 0.2 µM ([7]; @ 0.2 uM): 3.36%
- inhibition at 2 µM ([7]; @ 2 uM): 18%
- inhibition at 20 µM ([7]; @ 20 uM): 11.1%
- dUMP levels in tissue culture ([8]; A9): No changes; also recorded: does not alter
- peak intracellular ZMP levels ([8]; A9 cells, calculated with 4 pL cell volume): 6,500 μM
- inhibition at 0.2 µM ([9]; @ 0.2 uM): -2.6%
- inhibition at 2 µM ([9]; @ 2 uM): 9.15%
- inhibition at 20 µM ([9]; @ 20 uM): 53.7%
